Data: patent publication US9085589B2, “Cephem derivative” (SHIONOGI & CO., LTD., priority 2010, dated 2015)
In brackets after ≈: the same amount, converted by molar mass.

How the values were obtained:
Assay type in all cases: cell-based
[1] = test system: Acinetobacter baumannii SR24396; experiment: MIC, broth microdilution (CLSI), medium with human Apo-transferrin; conditions: A. baumannii SR24396, cation adjusted Mueller-Hinton + human Apo-transferrin, 5×10^5 cfu/mL, read-out: Minimum Inhibitory Concentration (MIC)
Method: (§1) (Test Methods for Compounds (I-10) to (I-15))
(§2) (Microbe/Strain Species Nos. 1 to 5):
(§3) Measurement of Minimum Inhibitory Concentration (MIC, microgram/ml) was conducted according to the CLSI (Clinical and Laboratory Standards Institute) and the amount of bacteria for inoculation was 5×10^5 cfu/mL, and cation adjusted Mueller-Hinton liquid medium added human Apo-tranferrin was used as the test medium, and conducted using broth microdilution method.
(§4) (Test Methods for Compounds (I-18) to (I-22))

[2] = test system: Klebsiella pneumoniae ATCC 700603; experiment: as above; conditions: K. pneumoniae ATCC700603, SHV-18, ESBL producing strain, cation adjusted Mueller-Hinton + human Apo-transferrin, 5×10^5 cfu/mL, read-out: Minimum Inhibitory Concentration (MIC)
Method: as §1, §2, §3, §4

[3] = test system: Pseudomonas aeruginosa SR24; experiment: as above; conditions: P. aeruginosa SR24, ceftazidime sensitive strain, cation adjusted Mueller-Hinton + human Apo-transferrin, 5×10^5 cfu/mL, read-out: Minimum Inhibitory Concentration (MIC)
Method: as §1, §2, §3, §4

[4] = test system: Pseudomonas aeruginosa SR27060; experiment: as above; conditions: P. aeruginosa SR27060, IMP-1, MBL producing (carbapenem resistant) strain, cation adjusted Mueller-Hinton + human Apo-transferrin, 5×10^5 cfu/mL, read-out: Minimum Inhibitory Concentration (MIC)
Method: as §1, §2, §3, §4

[5] = test system: Stenotrohomonas maltophilia SR21970; experiment: as above; conditions: Stenotrophomonas maltophilia, S. maltophilia SR21970, L-1, MBL producing (carbapenem resistant) strain, cation adjusted Mueller-Hinton + human Apo-transferrin, 5×10^5 cfu/mL, read-out: Minimum Inhibitory Concentration (MIC)
Method: as §1, §2, §3, §4

[6] = test system: Acinetobacter baumannii SR24396; experiment: MIC, agar plate incubation (Japan Society for Chemotherapy standard method); conditions: A. baumannii SR24396, sensitive disc medium, 1000 cfu/spot, read-out: Minimum Inhibitory Concentration (MIC)
Method: (§5) (Test Methods for Compounds (I-1) to (I-9), (I-16), (I-17) and (I-23))
(§6) (Microbe/Strain Species Nos. 1 to 4 and 6 to 8):
(§7) Measurement of Minimum Inhibitory Concentration (MIC: microgram/ml) was conducted according to the standard method of the Japan Society for Chemotherapy, and the amount of bacteria for inoculation was 1000 cfu/spot, and sensitive disc medium was used as the test medium, and conducted using agar plate incubation.

[7] = test system: Klebsiella pneumoniae ATCC 700603; experiment: as above; conditions: K. pneumoniae ATCC700603, SHV-18, ESBL producing strain, sensitive disc medium, 1000 cfu/spot, read-out: Minimum Inhibitory Concentration (MIC)
Method: as §5, §6, §7

[8] = test system: Pseudomonas aeruginosa SR24; experiment: as above; conditions: P. aeruginosa SR24, ceftazidime sensitive strain, sensitive disc medium, 1000 cfu/spot, read-out: Minimum Inhibitory Concentration (MIC)
Method: as §5, §6, §7

[9] = test system: Pseudomonas aeruginosa SR27060; experiment: as above; conditions: P. aeruginosa SR27060, IMP-1, MBL producing (carbapenem resistant) strain, sensitive disc medium, 1000 cfu/spot, read-out: Minimum Inhibitory Concentration (MIC)
Method: as §5, §6, §7

[10] = test system: Staphylococcus aureus Smith; experiment: as above; conditions: S. aureus Smith, MSSA, sensitive disc medium, 1000 cfu/spot, read-out: Minimum Inhibitory Concentration (MIC)
Method: as §5, §6, §7

[11] = test system: Streptococcus pneumoniae SR16675; experiment: as above; conditions: S. pneumoniae SR16675, PRSP, sensitive disc medium, 1000 cfu/spot, read-out: Minimum Inhibitory Concentration (MIC)
Method: as §5, §6, §7

[12] = test system: Streptococcus pneumoniae Type I; experiment: as above; conditions: S. pneumoniae Type I, PSSP, sensitive disc medium, 1000 cfu/spot, read-out: Minimum Inhibitory Concentration (MIC)
Method: as §5, §6, §7

[13] = test system: Stenotrohomonas maltophilia SR21970; experiment: MIC, agar plate incubation (CLSI), Mueller-Hinton agar; conditions: Stenotrophomonas maltophilia, S. maltophilia SR21970, L-1, MBL producing (carbapenem resistant) strain, 10000 cfu/spot, read-out: Minimum Inhibitory Concentration (MIC)
Method: as §5
(Microbe/Strain Species No. 5):
Measurement of Minimum Inhibitory Concentration (MIC, microgram/ml) was conducted according to the CLSI (Clinical and Laboratory Standards Institute) and the amount of bacteria for inoculation was 10000 cfu/spot, and Mueller-Hinton agar medium was used as the test medium, and conducted using agar plate incubation.

Row | MIC [6] [µg/mL] | MIC [7] [µg/mL] | MIC [8] [µg/mL] | MIC [9] [µg/mL] | MIC [10] [µg/mL] | MIC [11] [µg/mL] | MIC [12] [µg/mL] | MIC [13] [µg/mL] | SMILES | MIC [1] [µg/mL] | MIC [2] [µg/mL] | MIC [3] [µg/mL] | MIC [4] [µg/mL] | MIC [5] [µg/mL]
1 |  |  |  |  |  |  |  |  | CC(C)(O/N=C(\C(=O)N[C@@H]1C(=O)N2C(C(=O)[O-])=C(C[N@+]34CCC[C@H]3CN(C(=O)c3ccc(O)c(O)c3Cl)CC4)CS[C@H]12)c1ccc(O)cc1)C(=O)[O-].[Na+] [Compound I-15] | 4 | 32 | 0.5 | 2 | 0.5
2 | 0.5 (≈ 0.626 µM) | 1 (≈ 1.25 µM) | 0.063 (≈ 0.0789 µM) | 0.5 (≈ 0.626 µM) | 4 (≈ 5.01 µM) | 8 (≈ 10 µM) | 0.5 (≈ 0.626 µM) | 2 (≈ 2.51 µM) | CCN1CCN(C(=O)N[C@@H](C(=O)N[C@@H]2C(=O)N3C(C(=O)[O-])=C(C[N+]4(CCNC(=O)c5ccc(O)c(O)c5Cl)CCCC4)CS[C@H]23)c2ccccc2)C(=O)C1=O [Compound I-1] |  |  |  |  | 
3 | 1 (≈ 1.31 µM) | 4 (≈ 5.23 µM) | 0.25 (≈ 0.327 µM) | 1 (≈ 1.31 µM) |  |  |  | 2 (≈ 2.62 µM) | CC(C)(O/N=C(\C(=O)NC1C(=O)N2C(C(=O)O)=C(C[N+]3(CCNC(=O)c4ccc(O)c(O)c4Cl)CCCC3)CS[C@H]12)c1ccc(O)c(F)c1)C(=O)[O-] (some centres unmarked) [Compound I-17] |  |  |  |  | 
4 | 0.25 | 0.5 | 0.25 | 2 |  |  | 4 | 4 | Nc1nc(C(=CCC(=O)[O-])C(=O)N[C@@H]2C(=O)N3C(C(=O)[O-])=C(C[N+]4(CCNC(=O)c5ccc(O)c(O)c5Cl)CCCC4)CS[C@H]23)cs1.[Na+] [Compound I-8] |  |  |  |  | 
5 |  |  |  |  |  |  |  |  | CCN1CCN(C(=O)N[C@@H](C(=O)N[C@@H]2C(=O)N3C(C(=O)[O-])=C(C[N@+]4(C)[C@@H]5CC[C@H]4C[C@@H](NC(=O)c4ccc(O)c(O)c4Cl)C5)CS[C@H]23)c2ccccc2)C(=O)C1=O [Compound I-18] | 0.25 | 2 | 0.125 | 2 | 4

Row | SMILES | MIC [6] [µg/mL] | MIC [7] [µg/mL] | MIC [8] [µg/mL] | MIC [9] [µg/mL] | MIC [10] [µg/mL] | MIC [11] [µg/mL] | MIC [12] [µg/mL] | MIC [13] [µg/mL] | MIC [1] [µg/mL] | MIC [2] [µg/mL] | MIC [3] [µg/mL] | MIC [4] [µg/mL] | MIC [5] [µg/mL]
6 | CCN1CCN(C(=O)N[C@@H](C(=O)N[C@@H]2C(=O)N3C(C(=O)[O-])=C(C[N+]45CCC(CNC(=O)c6ccc(O)c(O)c6Cl)(CC4)CC5)CO[C@H]23)c2ccccc2)C(=O)C1=O [Compound I-23] | 1 (≈ 1.24 µM) | 16 (≈ 19.8 µM) | 0.5 (≈ 0.619 µM) | 4 (≈ 4.95 µM) |  |  | 0.5 (≈ 0.619 µM) | > 64 |  |  |  |  | 
